{
  "source": "patent US20250025480A1",
  "about": "“METHODS AND PHARMACEUTICAL COMPOSITIONS FOR THE TREATMENT OF CHOROIDAL NEOVASCULARISATION” (INSERM (INSTITUT NATIONAL DE LA SANTE ET DE LA RECHERCHE …, priority 2015, published 2025)",
  "type_in_all_cases": "in vivo",
  "key": {"[1]": {"test_system": "choroidal neovascularisation (CNV) induced by laser in rat eyes", "assay": "Fluorescein angiography grading of vascular leakage in rat model of laser-induced CNV", "settings": "14 days after laser, versus laser control, spironolactone subcutaneous 25 mg/kg/day, anti-VEGF intravitreous at day 0", "experimental": "(§1) All experiments were performed in accordance with the European Communities Council Directive 86/609/EEC and approved by local ethical committees (Ce5/2012/113). Six to eight-week old male Brown Norway rats from Janvier breeding Center (Le Genest-Saint-Isle, France) were used to create rat model of CNV. Vascular endothelial cell-specific MR knock-out mice (EC-MR-KO) and monocyte/macrophage-specific MR knock-out mice (MC-MR-KO) were generated in C57BL/6 genetic background mice and were obtained from team of Dr F. Jaisser (UMRS 1138, team 1). EC-MR-KO mice were created by mating transgenic mice expressing Cre recombinase in endothelial cells with mice harbouring MR-floxed alleles (Berger S et al. Loss of limbic mineralocorticoid receptor impairs behavioural plasticity. PNAS USA 2006). MC-MR-KO mice were obtained by mating mice expressing Cre recombinase in monocytes/macrophages (Clausen BE et al. Conditional gene targeting in macrophages and granulocytes using LysMcre mice. Trangenic Research 1999) with mice harbouring MR-floxed alleles. Animals were kept in pathogen-free conditions with food, water and litter and housed in a 12-hour light/12-hour dark cycle. […]\nFA was performed 14 days (in rats) or 10 days (in mice) after laser induction. […] Early and late phase angiograms were recorded 1-3 and 5-7 min respectively after fluorescein injection. […]"}, "[2]": {"test_system": "Transcript levels of MCP1, IL6, IL1β, TNFα, VEGF-A and PIGF", "assay": "Quantitative PCR of rat neuroretina and RPE-choroid complex 3 days after laser", "settings": "day 3, subcutaneous spironolactone", "experimental": "(§2) After anesthesia and dilation of the pupils, coverslips were positioned on the cornea as a contact glass. For rats, six to eight burns were performed 2 to 3-disk diameters away from the papillae with an Argon laser (532 nm) mounted on a slit lamp (170 mW, 0.1 second and 50 μm). For mice, four laser burns were induced at the 3, 6, 9 and 12 o'clock positions around the optic disc (250 mW, 0.05 second and 50 μm). The presence of a bubble witnessed the rupture of Bruch's membrane and confirmed the success of the laser impact.\nTreatments were introduced only in rat model of CNV. After laser photocoagulation, rats were divided into 6 groups: 1) non-treated; 2) daily subcutaneous injection of spironolactone diluted in oliver oil and DMSO (25 mg/kg/day) until sacrifice; 3) daily subcutaneous injection of vehicle (oliver oil and DMSO) until sacrifice; 4) intravitreous injection (IVT) of anti-rat VEGF (1.5 μg/μl, 5 μl, RnD system, Lille, France) only at day 0 (Couturier A et al. Anti-vascular endothelial growth factor acts on retinal microglia/macrophage activation in a rat model of ocular inflammation. Mol Vis 2014;20:908-20); 5) IVT of spironolactone-loaded PLGA MPs only at day 0 (2.2 μg/μl, 5 μl, obtained from team of Pr R. Herrero-Vanrell, Complutense University of Madrid). Considering the ex vivo release profile of Spi-MPs, the daily dose of spironolactone released in the vitreous is estimated at 18 μM; 6) IVT of blank PLGA MPs (5 μl) only at day 0.\nThree days after laser induction, rat neuroretinas and RPE-choroid-sclera complexes were carefully dissected from enulcated eyes and snap-frozen in liquid nitrogen and stored at −80° C. until use. Total RNA was isolated from tissues using RNeasy Plus Mini Kit (Qiagen, Courtaboeuf, France) according to the manufacturer's instructions. First-strand complementary DNA was synthesized from total mRNA using random primers (Life Technologies, Cergy Pontoise, France) and SuperScript II reverse transcriptase (Life Technologies). Transcript levels of MR, MCP1, IL6, IL1β, TNFα, VEGF-A and PIGF were analyzed by quantitative real-time PCR performed in 7500 Real-Time PCR System (Applied Biosystems, Foster City, CA, USA) with either SYBR Green or TaqMan detection."}, "[3]": {"test_system": "macrophage/microglial recruitment", "assay": "IBA1 immunofluorescence count of activated macrophage/microglial cells in laser burns on RPE-choroid flatmounts", "settings": "rat, day 3 after laser, subcutaneous spironolactone; P<0.05", "experimental": "as §2\nTreatments were introduced only in rat model of CNV. After laser photocoagulation, rats were divided into 6 groups: 1) non-treated; 2) daily subcutaneous injection of spironolactone diluted in oliver oil and DMSO (25 mg/kg/day) until sacrifice; 3) daily subcutaneous injection of vehicle (oliver oil and DMSO) until sacrifice; 4) intravitreous injection (IVT) of anti-rat VEGF (1.5 μg/μl, 5 μl, RnD system, Lille, France) only at day 0 (Couturier A et al. Anti-vascular endothelial growth factor acts on retinal microglia/macrophage activation in a rat model of ocular inflammation. […]\nThree days after laser induction (peak of macrophage infiltration), rat RPE-choroidal flatmounts were also prepared for immunofluorescence. […] IBAI positive macrophage/microglial cells were counted on stained laser lesions. The average cell number/per impact/rat eye was calculated."}, "[4]": {"test_system": "choroidal neovascularisation (CNV) induced by laser in rat eyes", "assay": "CNV volume quantification on RPE-choroid flatmounts (FITC-GSL I-Isolectin B4) in rat laser-induced CNV", "experimental": "as §1, with “alleles.” for “alleles. Animals were kept in pathogen-free conditions with food, water and litter and housed in a 12-hour light/12-hour dark cycle.”\nThe deepest focal plane in which the surrounding choroidal vascular network connecting to the lesion could be identified was judged to be the floor of the CNV lesion. The area of CNV-related fluorescence on each horizontal section was measured using ImageJ software. […]"}, "[5]": {"settings": "RPE-choroid complex and neuroretina"}},
  "data": [
    {"smiles": "CC(=O)S[C@@H]1CC2=CC(=O)CC[C@]2(C)[C@H]2CC[C@@]3(C)[C@@H](CC[C@@]34CCC(=O)O4)[C@H]12", "note": "[spironolactone, 17-hydroxy-7α-mercapto-3-oxo-17α-pregn-4-ene-21-carboxylic acid γ-lactone acetate]", "values": [
      {"measurement": "decrease in angiographic score (grading of vascular leakage on FA)", "setting": "[1]", "value": "−45", "unit": "%"},
      {"measurement": "expression of PIGF at RNA level", "setting": "[2]; [5]", "value": "not regulated"},
      {"measurement": "expression of VEGF-A at RNA level", "setting": "[2]; [5]", "value": "not regulated"},
      {"measurement": "laser-induced gene expression of IL1β", "setting": "[2]; RPE-choroid complex", "value": "down-regulates"},
      {"measurement": "laser-induced gene expression of IL6", "setting": "[2]; RPE-choroid complex", "value": "down-regulates"},
      {"measurement": "laser-induced gene expression of MCP1", "setting": "[2]; RPE-choroid complex", "value": "down-regulates"},
      {"measurement": "laser-induced gene expression of TNFα", "setting": "[2]; RPE-choroid complex", "value": "down-regulates"},
      {"measurement": "laser-induced gene expression of IL1β", "setting": "[2]; neuroretina", "value": "down-regulates"},
      {"measurement": "laser-induced gene expression of MCP1", "setting": "[2]; neuroretina", "value": "down-regulates"},
      {"measurement": "laser-induced gene expression of TNFα", "setting": "[2]; neuroretina", "value": "down-regulates"},
      {"measurement": "activated IBA1 positive macrophage/microglia in laser burns versus laser control", "setting": "[3]", "value": "significant fewer"},
      {"measurement": "CNV volume compared to laser control", "setting": "[4]; RPE/choroid flatmounts 16 days after laser, spironolactone subcutaneous, anti-VEGF intravitreous, P<0.01", "value": "significant decrease"},
      {"measurement": "CNV development", "setting": "[4]; systemic administration of spironolactone", "value": "limits the CNV development"}
    ]}
  ]
}
